These results are taken from patent US20200147069A1, “Compounds for The Reduction of The Deleterious Activity of Extended Nucleotide Repeat Containing Genes” (The Board of Trustees of the Leland Stanford Junior …, priority 2017, published 2020).

Bounds are passed on as bounds.

Data set [1] concerns the target T1, interaction between Supt4h and NGN (Homo sapiens, UniProt O00267+P63272).
T1 construct: expressed in transfected cells
Description: Split Gaussia luciferase complementation assay (M2-8 cells). It is filed as cell-based. The settings on record: for IC50: M2-8 cells, 24 hr, concentration at which signal was reduced to 50% of untreated. As for the experimental part: i: pNBR-X1-Supt4-Gluc1 and pNEBR-X1-NGN-Gluc2 The HA-Supt4h and Flag-NGN fragments are amplified by PCR using the plasmid pHA-Supt4h-YC and pFlag-NGN-YN and sub-cloned individually into pcDNA3.1-Gluc1 and pcDNA3.1-Gluc2 (described in “A highly sensitive protein-protein interaction assay based on Gausssia luciferase” published at Nat Methods. 2006 December; 3(12):977-9. Epub 2006 Nov. 12). Then HA-Supt4h-Gluc1 and Flag-NGN-Gluc2 are amplified by PCR and inserted to pNEBR-X1-Hygro (New England BioLabs), which contain RheoSwitch responsive element under the control of RheoSwitch ligand.
PCR products containing the sequence from 5XRE to polyA in pNEBR-X1-NGN-G2 are inserted to pNEBR-X1-Supt4h-G1 at PciI site to generate Supt4h-G1 and NGN-G2 bidirectional under their own RheoSwitch responsive element and polyA in the same plasmid.
i: 293-R^1 is a cloned cell which is engineered to constitutively express RSL1 receptor/activator by transfecting HEK 293 cells with pNEBR-R^1 plasmid (New England BioLabs) and selected with Blasticidin.
ii: M2-8 is a cloned 293-R^1 cell which can inducibly express pNEBR-X1-Supt4h-G1-NGN-G2 by addition of RSL1. Two point mutations (M431 and M1101) are introduced to the GL1 and GL2 for better stability according to “A high-throughput cell-based Gaussia luciferase reporter assay for identifying modulators of fibulin-3 secretion” published on J Biomol Screen. 2013 July; 18(6):647-58. The cell line is selected by Hygromycin.
All the HEK-293 cells and derivative cell clones are maintained in DMEM containing 10% FBS plus corresponding antibiotics (250 μg/ml hygromycin B, 10 μg/ml blasticidin or both) at 37° C., 5% CO2. All the transfections are done by using lifpofectamine 2000 (Invitrogen) according to the manufacture's direction.
Plasmids harboring the Gluc1 and Gluc2 are co-transfected in a 1:1 ratio into 293-R^1 cells plated on tissue culture treated 24-well plates using Lipofectamine 2000 according to the manufacturer's instruction. For stable cell M2-8, the cells are plated into 96 well or 384 well white plate directly. 24 hours later, RheoSwitch ligand together with/without test compound is added to the cells for induction/drug treatment. After 24 hr, the cells are washed with PBS and the plate was put in −20° C. freezer for overnight. After taking out the plate from freezer, lysis buffer (30 mM Tris-HCl, pH 8.0, 5 mM NaCl, 0.1% Triton X-100) with 10 μg/ml native coelenterazine (Nanolight Technology) is immediately added to the cells. The cells are lysed at room temperature for one hour in dark. After shaking for about 1 min, 40 μl of cell lysate are transferred to a white 96 well plate. For M2-8 in white micro plate, no transfer is needed. Signal intensities (integrated 100 ms) were read on Tecan Infinite M200 or M1000.
The bioluminescence signal of Gaussia Luciferase from untreated M2-8 cells was set as 100% and the IC50 of the compound was defined as the compound concentration at which the signal intensity was reduced to 50%.
The split Gaussia luciferase complementation assay measures the interaction between Sup4h and NGN. NGN is the subunit of Supt5h that binds to Supt4h. […] Therefore, administration of Compound 1 results in decreased production of mutant proteins encoded by genes that include mutant nucleotide repeats.

The test system of data set [2] is mutant HTT protein. Description: Mutant HTT activity assay in induced pluripotent stem cells (iPSC). The format is cell-based, human. The following applies: iPSCs derived from a Huntington's disease patient, 24 hr, Western blot normalized by tubulin. As to the method:
FIG. 1A-1B. iPSCs were treated with Compound 1 at different doses for 24 hr. The cells were collected and lysed for protein quantification. Equal amounts of protein were applied on SDS-PAGE gel for Western Blotting. Mutant HTT protein was recognized by polyQ antibody (MAB1574 from Millipore) while wild type HTT protein was blotted by anti-Huntingtin antibody (MAB2166 from Millipore) (FIG. 1A). Both proteins were scanned and quantified by Li-Cor Odyssey and normalized by tubulin (FIG. 1B).
Huntington disease patient iPSCs (ND36999 from Coriell Institute) were detached into single cells by Accutase (AT104 from Accutase) and plated on a 24-well plate coated with Matrigel (354277 from Corning). […] The protein concentrations were determined by BCA assay (Pierce, ThermoFisher). […] The protein level of mutant HTT, total HTT and tubulin were determined by immunoblotting with anti-poly Glutamine (MAB1574 from Millipore), anti-Huntingtin protein (MAB2166 from Millipore) and anti-alpha tubulin (AJ1034a from ABGENT). […] The band intensities were determined by Li-Cor Odyssey software.
Using the protocol reported above, iPSCs were treated with Compound 1 at various doses for 24 hr. The cells were collected and lysed for protein quantification. […] Both proteins were scanned and quantified by Li-Cor Odyssey and normalized by tubulin.
(In western blotting, separated proteins are transferred to a membrane and probed.)

The subject of data set [3] is Gmr-Htt97Q/+ HD flies. Description: Eye morphology (rough eye) analysis in Drosophila HD model. The settings on record: 100 μM in media. The format is in vivo, Drosophila melanogaster. As for the experimental part:
FIG. 2A. The morphology of compound eye was analyzed in fruit flies treated with or without Compound 1. […] To quantify the appearance of “rough eye” in Gmr-Htt97Q/+ treated with 10 and 100 μM of Compound 1, ten flies were randomly picked from each group and the number of flies with “rough eye” phenotype were determined under microscope. Compared to untreated group, the relative percentage of HD flies with “rough eye” phenotype in treated groups is shown (right panel). Data are presented as mean±SD (N=3; **, p<0.01 by student's t test).
The Drosophila melanogaster (fruit fly) HD models used in this set of experiments carry the coding sequence of human Htt exon1 with 97 CAG repeats to mimic mutant Httof Huntington's disease (HD). The Gmr::Htt97Q fly, expressing mutant Htt primarily in the neurons of Drosophila compound eyes, has a severe degeneration of photoreceptor neurons and the phenotypic trait ‘rough eye’. The elav::Htt97Q fly expresses the mutant protein specifically in neuroblasts and glial cells in the Drosophila embryonic CNS, resulting in a substantially negative impact on eclosion. All of the fly stocks and genetics crosses were maintained at 25° C. on standard cornmeal yeast agar media. […]

In data set [4] the test system is elav::Htt97Q HD flies. Nature of the data set: Eclosion rate analysis in Drosophila HD model. The format is in vivo, Drosophila melanogaster. As to the method: FIG. 2B. HD fly (elav::Htt97Q) eclosion rate was measured in the presence or absence of Compound 1 treatment. 100 newly hatched flies, generated from crossing of male (elav-gal4/cyo) and female (UAS-Htt97Q/UAS-Htt97Q) flies, were collected at […]. The eclosion rate was determined by the number of HD-flies (elav::Htt97Q) vs. the number of non HD-flies (cyo::Htt97Q) (N=3; *, p<0.05 by student's t test).
The Drosophila melanogaster (fruit fly) HD models used in this set of experiments carry the coding sequence of human Htt exon1 with 97 CAG repeats to mimic mutant Httof Huntington's disease (HD). The Gmr::Htt97Q fly, expressing mutant Htt primarily in the neurons of Drosophila compound eyes, has a severe degeneration of photoreceptor neurons and the phenotypic trait ‘rough eye’. The elav::Htt97Q fly expresses the mutant protein specifically in neuroblasts and glial cells in the Drosophila embryonic CNS, resulting in a substantially negative impact on eclosion. […]
A group of 15 male flies (elav-gal4/cyo) and 15 virgin-female (UAS-Htt97Q/UAS-Htt97Q) flies were cultured in a vial that contains standard yeast agar media without or with Compound 1. […] The eclosion rate is determined by the number of HD-flies vs. the number of non HD-flies in a total of 100 collected flies in each experimental condition. […]

Data set [5] has as its system HD flies. Nature of the data set: Fly viability. It is filed as in vivo, Drosophila melanogaster. The settings on record: dose that alleviated phenotypic defects.

The IC50 is the midpoint of a concentration-inhibition curve. Turning to `CCN1CCC(NC2CCCc3c2[nH]c2ccccc32)CC1` (stereo not drawn), in data set [1], the IC50 was more than 1000 nM.

`CC(C)NC1CCCc2c1[nH]c1ccc(Br)cc21` (stereo not drawn) gave a half-maximal inhibitory concentration (IC50) in data set [1] of less than 1000 nM. In the case of `CC(C)Oc1ccc2[nH]c3c(c2c1)CCCC3NC1CCCC1` (stereo not drawn), in data set [1], the IC50 is more than 1000 nM. Still for that read-out and setting: to `Brc1ccc2[nH]c3c(c2c1)CCCC3NCc1ccccc1` (stereo not drawn) [drawing 40] belongs less than 1000 nM. On to `Cc1ccc2[nH]c3c(c2c1)CCCC3NCc1ccccc1` (stereo not drawn), for which the IC50 in data set [1] was less than 1000 nM. Still for that read-out and setting: to `Brc1ccc2[nH]c3c(c2c1)CCCC3NC1CCCC1` (stereo not drawn) belongs less than 1000 nM; to `Cc1ccc2[nH]c3c(c2c1)CCCC3NCc1ccc(F)cc1` (stereo not drawn), less than 1000 nM.

In the case of `Brc1ccc2[nH]c3c(c2c1)CCCC3NCc1ccccc1` (stereo not drawn) [Compound 1], the “interaction between Sup4h and NGN” value in data set [1] (split Gaussia assay) is “interrupts the interaction between Sup4h and NGN”. Moreover, the “mutant HTT protein level” value in data set [2] is reported as “decreases mutant HTT protein”. Moreover, the “incidence of rough eye phenotype” value in data set [3] is listed as 70% of the untreated group. The eclosion rate entry in data set [4] is recorded as “relatively low eclosion rate was reversed”. Also, in data set [5], the fly viability result is “did not affect fly viability”. Regarding `CC(C)Oc1ccc2[nH]c3c(c2c1)CCCC3NCCc1ccccc1` (stereo not drawn), the IC50 in data set [1] was more than 1000 nM. Same read-out and setting: to `CC(C)NC1CCCc2c1[nH]c1ccc(OC(C)C)cc21` (stereo not drawn) belongs more than 1000 nM. Still for that read-out and setting: the value for `O=C(NC1CCCc2c1[nH]c1ccc(Cl)cc21)c1ccccn1` (stereo not drawn) was less than 1000 nM.
